The source of these data is paper PMC3847131, “Functional characterization of a serine-threonine protein kinase from Bambusa balcooa that implicates in cellulose overproduction and superior quality fiber formation” (BMC Plant Biology, 2013).

This experiment deals with T1, BbKst-kinase (serine/threonine protein kinase BbKst).
T1 construct: kinase domain (from 2233 to 3342 bp of cDNA), His-fused, expressed in E. coli BL21
Nature of the experiment: in vitro […] kinase assay with purified kinase domain. In kind it is biochemical, Bambusa balcooa.

Take `O=c1c(O)c(-c2ccc(O)c(O)c2)oc2cc(O)cc(O)c12` [quercetin]: the IC50 (as a rule, the midpoint of a concentration-inhibition curve) amounted to 7 nM.
